Test results published in PMC6527222 (PLoS ONE, 2019).
Entries after “also recorded” stand apart in the source; their conditions may differ. Read-outs that look alike come from different tables or passages of the source.

Legend:
β2-AR [1] = tested on: β2-AR; design: method as in as printed in each cell (43-46, 48-54, 56-58); conditions: as described in the references; ref (43-46, 48-54, 56-58); cited from earlier work
JB6 P+ cells [2] = test: Anchorage-independent growth assay in soft agar (EGF-induced JB6 P+ colony formation); type: cell-based, mouse; conditions: for effect on EGF-mediated transformation of JB6 P+ cells, words / minimal effective concentration / IC50: 10 ng/mL EGF; for minimal effective concentration: first concentration with expected statistical decrease, read-out: Soft Agar Assay Log IΔ2*PSD (converted)
Procedure: Ten ng/mL EGF was used to promote the anchorage-independent growth of JB6 cells. […] Plates were incubated at 37°C, 5% CO2 for 14 days. Colonies with greater than ten cells were counted manually under a microscope. […] Normalization allowed for comparison of data over a range of JB6 P+ cell cultures, passages, and experimental time for the shRNA studies, as well as control for variation in the EGF response, and importantly allowed for a direct comparison to all concentration-response experiments including the toxicity assays. […] All group sizes were determined via previous studies to provide statistically meaningful data. In the soft agar assays, key results were repeated with different JB6 P+ cells to confirm the results. Similarly, the shRNA studies were conducted with three independent concentration-response curves with different JB6 P+ cell stocks. […] For two sample comparisons a t-test was utilized, and when comparing multiple samples a One-, Two-, or Three-Factor ANOVA followed by Tukey-Kramer post hoc test was utilized depending on the data. For all tests, statistical difference was donated when p < 0.05. […] The I[…]*PSD is expressed in x-axis units (log [M]) as is an IC50 and it represents the first concentration where it is expected to observe a statistical decrease in the measured signal. […] Using the formula provided by GraphPad Prism or a straight line for the point-to-point graphs, the X-axis value for point Y was determined. The error is ascribed to this measurement via adding and subtracting the pooled standard deviation (PSD) to/from point Y generating point Y ± PSD. The two new points were then transformed to the X-axis units as was done for point Y creating an asymmetric error in sigmoidal plots. When the error was asymmetric, the larger error value was chosen to err on the conservative side. See S1 Fig for a pictoral explination of the method. The data is presented as I[…]*PSD ± error.

JB6 P+ cells [3] = test: SRB cytotoxicity assay; type: cell-based, mouse; conditions: for SRB Assay Log IΔ2*PSD: NT = no toxicity at any concentration tested; for Toxicity label: Toxic = no 10-fold difference between IΔ2*PSD from soft agar and SRB assays
Procedure: 96-well plates were seeded with 3x10^3 JB6 P+ cells per well and allowed to attach overnight. […] Cell viability was determined using Sulforhodamine B (SRB) assay from Sigma-Aldrich according to the manufacturer’s protocol. Cellular protein content was measured using a Bio-Tek μQuant plate reader with KCJunior software.
Concentration-response curves were normalized so that the EGF positive control on each 96-well plate was set to 100% and the control wells on each plate were set to 0%. Toxicity assays (SRB and MTS) were normalized so that the control on each plate represented 100% viability. Normalization allowed for comparison of data over a range of JB6 P+ cell cultures, passages, and experimental time for the shRNA studies, as well as control for variation in the EGF response, and importantly allowed for a direct comparison to all concentration-response experiments including the toxicity assays. […] All group sizes were determined via previous studies to provide statistically meaningful data. In the soft agar assays, key results were repeated with different JB6 P+ cells to confirm the results. Similarly, the shRNA studies were conducted with three independent concentration-response curves with different JB6 P+ cell stocks. […] For two sample comparisons a t-test was utilized, and when comparing multiple samples a One-, Two-, or Three-Factor ANOVA followed by Tukey-Kramer post hoc test was utilized depending on the data. For all tests, statistical difference was donated when p < 0.05.
The IΔ2*PSD is expressed in x-axis units (log [M]) as is an IC50 and it represents the first concentration where it is expected to observe a statistical decrease in the measured signal.
Using the formula provided by GraphPad Prism or a straight line for the point-to-point graphs, the X-axis value for point Y was determined. The error is ascribed to this measurement via adding and subtracting the pooled standard deviation (PSD) to/from point Y generating point Y ± PSD. The two new points were then transformed to the X-axis units as was done for point Y creating an asymmetric error in sigmoidal plots. When the error was asymmetric, the larger error value was chosen to err on the conservative side. See S1 Fig for a pictoral explination of the method. The data is presented as IΔ2*PSD ± error.

α1D-AR = conditions: read-out: Kd towards the α1D-AR; cited from earlier work
β2-AR [4] = conditions: given as negative log value; cited from earlier work
[5] = Mus musculus, 336 h, 14 days, negative log value, read-out: Soft Agar Assay Log IC50 (converted)

Which “Pharmacological property at β2-AR” value (β2-AR [1]) does the source give for CC(C)(C)NCC(O)COc1cccc2c1CC(O)C(O)C2 (centres unmarked) [Nadolol] here?
Its value is “Inverse agonist for cAMP [44, 57]”.

What about the “effect on EGF-mediated transformation of JB6 P+ cells, words” value (from here on “effect … of JB6 P+ cells, words”) (JB6 P+ cells [2]; soft agar) of the same compound?
Its value is “do not prevent EGF-induced transformation of JB6 P+ cells”.

And the minimal effective concentration (JB6 P+ cells [2]; Mus musculus, 336 h, 14 days)?
The minimal effective concentration was 4.68 µM.

With CC(C)NCC(O)c1ccc(O)c(O)c1 (centres unmarked) [Isoproterenol] as the compound, how does the “SRB Assay Log IΔ2*PSD” value (JB6 P+ cells [3]; 72 hr) read?
The value was -4.77 ± 0.16 log [M].

And the Toxicity label (JB6 P+ cells [3])?
The Toxicity label was “Toxic”.

And the “Pharmacological property at β2-AR” value (β2-AR [1])?
Its value is “Full equipotent agonist [44, 58]”.

And the “effect … of JB6 P+ cells, words” value (JB6 P+ cells [2]; soft agar)?
The value was “failed to increase EGF-mediated transformation of JB6 P+ cells”.

What about the minimal effective concentration (JB6 P+ cells [2]; Mus musculus, 336 h, 14 days) of the same compound?
The minimal effective concentration was 24.5 µM.

With Cl.O=C1c2ccccc2CCC1CNCCc1ccc(O)cc1 (stereo not drawn) [HEAT HCl, 2-{[β-(4-Hydroxyphenyl)ethyl]aminomethyl}-1-tetralone hydrochloride] as the compound, how does the “toxicity in SRB assay, words” value (JB6 P+ cells [3]; 72 hr) read?
Its value is “toxicity at 10 μM”.

And the “SRB Assay Log IΔ2*PSD” value (JB6 P+ cells [3]; 72 hr)?
The value was -5.99 ± 0.03 log [M].

And the Kd (α1D-AR)?
Its Kd is 0.000361 ± 8e-05 µM.

What about the “effect … of JB6 P+ cells, words” value (JB6 P+ cells [2]; soft agar) of the same compound?
The value was “only inhibited colony formation at 1 and 10 μM; also recorded: do not prevent EGF-induced transformation of JB6 P+ cells”.

What about the minimal effective concentration (JB6 P+ cells [2]; Mus musculus, 336 h, 14 days) of the same compound?
Its minimal effective concentration is 0.145 µM.

Which results are given for CC(C)NCC(O)COc1cccc2ccccc12 (centres unmarked) [Propranolol]?
SRB Assay Log IΔ2*PSD (JB6 P+ cells [3]; 72 hr): -4.20 ± 0.11 log [M]; Pharmacological property at β2-AR (β2-AR [1]): Inverse agonist for cAMP that recruits ±-arr [29, 51]; minimal effective concentration (JB6 P+ cells [2]; Mus musculus, 336 h, 14 days): 5.5 µM

For Cc1ccc(Cl)c(OCC(O)CNC(C)(C)C)c1 (centres unmarked) [Bupranolol], which “SRB Assay Log IΔ2*PSD” value (JB6 P+ cells [3]; 72 hr) is on record?
The value was -4.80 ± 0.05 log [M].

And the Toxicity label (JB6 P+ cells [3])?
The Toxicity label was “Toxic”.

And the “Pharmacological property at β2-AR” value (β2-AR [1])?
Its value is “Antagonist, not specified”.

Which “SRB Assay Log IΔ2*PSD” value (JB6 P+ cells [3]; 72 hr) does the source give for CC(C)(Cc1c[nH]c2ccccc12)NCC(O)COc1ccccc1C#N (centres unmarked) [Bucindolol] here?
The value was -4.84 ± 0.10 log [M].

And the Toxicity label (JB6 P+ cells [3])?
Its Toxicity label is “Toxic”.

And the “Pharmacological property at β2-AR” value (β2-AR [1])?
The value was “Partial agonist for cAMP and full agonist for ERK [44, 52]”.

And the “Log Kd at β2-AR” value (β2-AR [4])?
Its value is -8.22 ± 0.1 [52].

What about the IC50 (JB6 P+ cells [2]; [5]) of the same compound?
The IC50 was 9.33 µM.

What about the minimal effective concentration (JB6 P+ cells [2]; Mus musculus, 336 h, 14 days) of the same compound?
The minimal effective concentration was 1.91 µM.

Which “SRB Assay Log IΔ2*PSD” value (JB6 P+ cells [3]; 72 hr) does the source give for CC(C)(C)NC[C@H](O)COc1nsnc1N1CCOCC1 [Timolol] here?
The value was -4.22 ± 0.34 log [M].

What about the “Pharmacological property at β2-AR” value (β2-AR [1]) of the same compound?
The value was “Inverse agonist for cAMP [48]”.

What about the IC50 (JB6 P+ cells [2]; Mus musculus, soft agar, read-out: IC50, inhibition of EGF-mediated transformation) of the same compound?
The IC50 was 3.31 µM.

And the IC50 (JB6 P+ cells [2]; [5])?
The IC50 was 3.31 µM.

And the Emax (JB6 P+ cells [2]; Mus musculus, efficacy of inhibition of colony formation, reported if non-toxic)?
The Emax was 100%.

For CC(C)(C)NCC(O)COc1cccc2[nH]c(=O)[nH]c12 (centres unmarked) [CGP 12177], which “SRB Assay Log IΔ2*PSD” value (JB6 P+ cells [3]; 72 hr) is on record?
The value was -4.46 ± 0.19 log [M].

And the Toxicity label (JB6 P+ cells [3])?
The Toxicity label was “Toxic”.

What about the “Pharmacological property at β2-AR” value (β2-AR [1]) of the same compound?
The value was “Partial agonist [53]”.

And the “effect … of JB6 P+ cells, words” value (JB6 P+ cells [2]; soft agar)?
The value was “do not prevent EGF-induced transformation of JB6 P+ cells”.

And the minimal effective concentration (JB6 P+ cells [2]; Mus musculus, 336 h, 14 days)?
The minimal effective concentration was 7.59 µM.
